Earlier results on five compounds are cited in patent US20130189275A1, “COMPOSITIONS AND METHODS FOR INHIBITION OF OR TREATMENT OF DENGUE VIRUS INFECTION” (priority 2010, published 2013).

The test system of data set [1] is Syndecan-2.
For data set [2], the system named is Syndecan-3.
Data set [3] deals with Syndecan-4.
In data set [4] the test system is Syndecan-1.

As for `C=C(c1ccc(C(=O)O)cc1)c1cc2c(cc1C)C(C)(C)CCC2(C)C` [bexarotene], in data set [1], the syndecan-2 expression entry was “downregulated”.
With `C[C@]12CCC(=O)C[C@@H]1CC[C@@H]1[C@@H]2CC[C@]2(C)[C@@H](O)CC[C@@H]12` [dihydrotestosterone], the syndecan-3 expression result in data set [2] is listed as “downregulated”.
For the compound `O=C1NC(=O)C(c2ccccc2)(c2ccccc2)N1` [phenyloin (PHT), phenyloin], in data set [3], the syndecan-4 expression result is recorded as “downregulated”.
`Cc1cccc(Nc2cc(Cl)nc(SCC(=O)O)n2)c1C` [pirinixic acid]: in data set [4], the syndecan-1 expression result is listed as “downregulated”.
Take `CC1=C(/C=C/C(C)=C/C=C/C(C)=C/C(=O)O)C(C)(C)CCC1` [tretinoin]: the syndecan-1 expression result in data set [4] is “downregulated”.
